Source: PubChem BioAssay (NCI)
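Grown in 96-well plates, cells were treated for 48 hours with each compound at five concentrations. Insufficient inhibition: endpoint recorded as highest concentration tested. GI50 = concentration required for 50% inhibition of growth. TGI marks complete inhibition of growth.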

Experiments:
Assay in all cases: NCI-60 cell line screen, 48 h
[1] = tested on: MALME-3M melanoma
[2] = tested on: CCRF-CEM leukemia
[3] = tested on: OVCAR-5 ovarian
[4] = tested on: HCC-2998 colon
[5] = tested on: K-562 leukemia
[6] = tested on: U251 CNS
[7] = tested on: CAKI-1 renal
[8] = tested on: DU-145 prostate
[9] = tested on: SNB-75 CNS
[10] = tested on: HL-60(TB) leukemia
[11] = tested on: SW-620 colon
[12] = tested on: SN12C renal
[13] = tested on: HCT-116 colon
[14] = tested on: A498 renal
[15] = tested on: A549 NSCLC
[16] = tested on: RPMI-8226 leukemia
[17] = tested on: OVCAR-4 ovarian
[18] = tested on: LOX IMVI melanoma
[19] = tested on: SF-539 CNS
[20] = tested on: ACHN renal
[21] = tested on: SF-295 CNS
[22] = tested on: HOP-62 NSCLC
[23] = tested on: IGROV1 ovarian
[24] = tested on: SF-268 CNS
[25] = tested on: NCI-H522 lung
[26] = tested on: UO-31 renal
[27] = tested on: MCF7 breast
[28] = tested on: SK-OV-3 ovarian
[29] = tested on: COLO 205 colon
[30] = tested on: T-47D breast
[31] = tested on: PC-3 prostate
[32] = tested on: HS 578T breast
[33] = tested on: NCI-H226 lung
[34] = tested on: HOP-92 NSCLC
[35] = tested on: UACC-62 melanoma
[36] = tested on: OVCAR-3 ovarian
[37] = tested on: RXF 393 renal
[38] = tested on: TK-10 renal
[39] = tested on: SR leukemia
[40] = tested on: UACC-257 melanoma
[41] = tested on: SK-MEL-28 melanoma
[42] = tested on: NCI-H460 lung
[43] = tested on: MDA-MB-435
[44] = tested on: NCI/ADR-RES ovarian
[45] = tested on: SNB-19 CNS
[46] = tested on: M14 melanoma
[47] = tested on: 786-0 renal
[48] = tested on: SK-MEL-2 melanoma
[49] = tested on: HCT-15 colon
[50] = tested on: MOLT-4 leukemia
[51] = tested on: MDA-MB-231 breast
[52] = tested on: HT29 colon
[53] = tested on: KM12 colon
[54] = tested on: EKVX NSCLC

`NC(=O)c1cc(-c2ccc3ncnc(N4CCc5cc(F)c(Cl)cc54)c3c2)cnc1N` was tested, and the GI50 [1] was 1.51 µM, the TGI [1] was 15.2 µM and the GI50 [2] was 2.95 µM. The TGI [2] was 34.8 µM, the GI50 [3] was 1.82 µM and the TGI [3] was 47.9 µM. It also gave a GI50 [4] of 1.68 µM, a TGI [4] of 7.09 µM and a GI50 [5] of 3.35 µM. The TGI [5] was greater than 100 µM, the GI50 [6] was 2.44 µM and the TGI [6] was 18.8 µM. The GI50 [7] was 0.529 µM, the TGI [7] was 17 µM and the GI50 [8] was 1.79 µM. For the same compound, the TGI [8] was 27.4 µM, the GI50 [9] was 0.524 µM and the TGI [9] was 5.8 µM. For the same compound, the GI50 [10] was 0.573 µM, the TGI [10] was 6.18 µM and the GI50 [11] was 2.41 µM. For the same compound, the TGI [11] was 19.4 µM, the GI50 [12] was 1.03 µM and the TGI [12] was 25 µM. The GI50 [13] was 1.22 µM, the TGI [13] was 2.81 µM and the GI50 [14] was 0.336 µM. It also gave a TGI [14] of 2.46 µM, a GI50 [15] of 1.05 µM and a TGI [15] of 13.4 µM. It also gave a GI50 [16] of 1.39 µM, a TGI [16] of 11.3 µM and a GI50 [17] of 1.28 µM. It also gave a TGI [17] of 2.95 µM, a GI50 [18] of 1.69 µM and a TGI [18] of 12.3 µM. It also gave a GI50 [19] of 1.49 µM, a TGI [19] of 3.56 µM and a GI50 [20] of 0.801 µM. For the same compound, the TGI [20] was 17 µM, the GI50 [21] was 1.47 µM and the TGI [21] was 4.26 µM. It also gave a GI50 [22] of 1.37 µM, a TGI [22] of 7.22 µM and a GI50 [23] of 0.279 µM. For the same compound, the TGI [23] was 1.62 µM, the GI50 [24] was 1.88 µM and the TGI [24] was 49.8 µM. The GI50 [25] was 1.55 µM, the TGI [25] was 4.72 µM and the GI50 [26] was 0.311 µM. It also gave a TGI [26] of 10.6 µM, a GI50 [27] of 0.317 µM and a TGI [27] of 2.15 µM. It also gave a GI50 [28] of 1.09 µM, a TGI [28] of 4.18 µM and a GI50 [29] of 2.7 µM. It also gave a TGI [29] of 21.4 µM, a GI50 [30] of 0.273 µM and a TGI [30] of 2.36 µM. The GI50 [31] was 0.976 µM, the TGI [31] was 5.27 µM and the GI50 [32] was 0.839 µM. It also gave a TGI [32] of 7.65 µM, a GI50 [33] of 3.04 µM and a TGI [33] of 33.1 µM. For the same compound, the GI50 [34] was 0.231 µM, the TGI [34] was 2.63 µM and the GI50 [35] was 1.62 µM. It also gave a TGI [35] of 18.3 µM, a GI50 [36] of 1.67 µM and a TGI [36] of 10 µM. The GI50 [37] was 0.656 µM, the TGI [37] was 2.59 µM and the GI50 [38] was 0.519 µM. The TGI [38] was 27.9 µM, the GI50 [39] was 1.87 µM and the TGI [39] was 16.2 µM. For the same compound, the GI50 [40] was 2.83 µM, the TGI [40] was greater than 100 µM and the GI50 [41] was 2.67 µM. For the same compound, the TGI [41] was 28.5 µM, the GI50 [42] was 1.3 µM and the TGI [42] was 3.96 µM. For the same compound, the GI50 [43] was 2.3 µM, the TGI [43] was greater than 100 µM and the GI50 [44] was 3.22 µM. It also gave a TGI [44] greater than 100 µM, a GI50 [45] of 1.82 µM and a TGI [45] greater than 100 µM. It also gave a GI50 [46] of 2.84 µM, a TGI [46] of 41.4 µM and a GI50 [47] of 1.19 µM. It also gave a TGI [47] of 10.4 µM, a GI50 [48] of 1.54 µM and a TGI [48] of 4.02 µM. For the same compound, the GI50 [49] was 2.02 µM, the TGI [49] was greater than 100 µM and the GI50 [50] was 1.25 µM. The TGI [50] was 6.23 µM, the GI50 [51] was 2.02 µM and the TGI [51] was 16.2 µM. The GI50 [52] was 1.14 µM, the TGI [52] was 9.76 µM and the GI50 [53] was 2.33 µM. The TGI [53] was 10.9 µM, the GI50 [54] was 0.806 µM and the TGI [54] was 15.3 µM.
